Laboratory results reported in patent US11723897B2, “Fatty acids as anti-inflammatory agents” (University of Pittsburgh—Of the Commonwealth System of …, priority 2009, dated 2023).

Legend:
PPARγ = molecular target: T1, PPARγ (Homo sapiens, UniProt P37231); test: PPARγ beta-lactamase reporter assay; assay type: cell-based; settings: concentrations 0.5-10,000 nM; read-out: PPARγ activation EC50
T1 sequence (P37231 1-505): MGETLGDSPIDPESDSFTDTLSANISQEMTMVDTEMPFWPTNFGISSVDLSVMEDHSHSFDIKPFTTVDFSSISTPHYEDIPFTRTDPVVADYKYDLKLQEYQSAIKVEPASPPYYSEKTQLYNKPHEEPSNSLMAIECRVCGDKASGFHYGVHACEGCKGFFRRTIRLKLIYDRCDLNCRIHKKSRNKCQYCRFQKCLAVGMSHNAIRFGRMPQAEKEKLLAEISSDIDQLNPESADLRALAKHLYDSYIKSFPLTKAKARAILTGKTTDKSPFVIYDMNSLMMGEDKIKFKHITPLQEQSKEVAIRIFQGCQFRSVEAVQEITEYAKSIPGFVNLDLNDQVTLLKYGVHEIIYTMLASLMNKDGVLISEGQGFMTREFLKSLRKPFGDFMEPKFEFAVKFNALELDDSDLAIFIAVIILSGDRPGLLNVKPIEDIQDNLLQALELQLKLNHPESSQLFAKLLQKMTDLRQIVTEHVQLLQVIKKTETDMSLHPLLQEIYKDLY
Protocol: FIG. 11a-11e illustrates modulation of anti-oxidant and inflammatory responses by 17-oxoDHA and 17-oxoDPA. RAW264.7 cells were treated with increasing concentration of 17-oxoDHA and 17-oxoDPA. (a) Cells were harvested 1 h after treatment and Nrf2 levels were quantified in nuclear extracts. (b) Cells were harvested 18 h after treatment and HO-1 and Nqo1 (upper band) levels were measured by western blot. (c, d) RAW264.7 cells were treated with increasing concentration of 17-oxoDHA and 17-oxoDPA for 6 h and Kdo2+IFNγ were added. Samples were collected at 12 h. IL-6, MCP-1 and IL-10 levels were measured in the cell media by Quantikine ELISA Kit (R&D Systems) and normalized by the total protein content (c); Nitrite levels were measured in the cell media and normalized by the total protein content and iNOS and Cox-2 levels were measured in total cell lysates (d); (e) PPARγ beta-lactamase reporter assays were performed for Rosiglitazone, 17-OxoDPA, 17-OxoDHA, 15d-PGJ2, 17-hydroxyDHA, DPA, and DHA with concentrations ranging from 0.5-10,000 nM.
The observation that oxo-fatty acids, such as 15d-PGJ2^30, 5-oxoEPA, 6-oxoOTE, and the synthetic 4-oxoDHA^31, covalently bind and activate the peroxisome proliferator-activated receptor γ (PPARγ), prompted the present inventors to test the ability of 17-oxoDPA, and 17-oxoDHA to activate PPARγ. […]

[1] = tested on: EFAD formation in RAW264.7 cells; test: Inhibitor study: EFAD formation in RAW264.7 cells activated with Kdo2 and IFNγ; assay type: cell-based, murine
Ovine placental COX-2 = molecular target: T2, Ovine placental COX-2 (Ovis aries, UniProt P79208); test: In vitro COX-2 reaction with DPA ± ASA; assay type: biochemical; settings: purified ovine COX-2 + DPA 10 μM, 2 mM ASA
T2 construct: Ovine placental COX-2 (Cayman 60120) was also from Cayman Chemicals; purchased Cayman Chemicals 60120; host or cells: ovine placenta (tissue-derived, from the word 'placental')
T2 sequence (P79208 17-603): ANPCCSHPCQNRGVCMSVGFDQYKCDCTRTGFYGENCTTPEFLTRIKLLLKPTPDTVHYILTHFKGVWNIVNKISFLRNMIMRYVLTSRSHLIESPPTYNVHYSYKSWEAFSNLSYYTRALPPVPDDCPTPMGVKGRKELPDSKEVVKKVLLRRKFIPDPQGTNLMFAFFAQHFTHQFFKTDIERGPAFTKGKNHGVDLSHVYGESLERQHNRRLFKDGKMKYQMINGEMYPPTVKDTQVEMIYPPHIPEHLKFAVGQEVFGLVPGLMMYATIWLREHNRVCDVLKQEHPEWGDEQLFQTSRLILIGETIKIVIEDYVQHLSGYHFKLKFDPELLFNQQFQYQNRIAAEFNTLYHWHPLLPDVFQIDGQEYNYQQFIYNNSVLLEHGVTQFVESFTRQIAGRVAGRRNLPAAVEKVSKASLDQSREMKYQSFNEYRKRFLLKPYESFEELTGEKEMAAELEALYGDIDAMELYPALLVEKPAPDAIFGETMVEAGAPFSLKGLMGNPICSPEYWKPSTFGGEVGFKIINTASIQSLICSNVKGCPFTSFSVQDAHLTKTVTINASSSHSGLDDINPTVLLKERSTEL

[2] = tested on: bone marrow-derived macrophage (BMDM) cells; test: EFAD formation in activated bone marrow-derived macrophages ± ASA; assay type: cell-based, C57BL/6 murine; settings: activated with Kdo2 and IFNγ, treated with ASA
RAW264.7 cells = test: GS-EFAD adducts in activated RAW264.7 cells; assay type: cell-based, murine; settings: activated RAW264.7 cells + ASA
[3] = RAW264.7 + Kdo2 + IFNγ, 20 h, ↓ decrease, ↑ increase, NE (not defined in patent)

SMILES | EC50 (PPARγ) | Increase of EFAD formation ([1]; ASA 200 μM, all EFADs except EFAD-4 and EFAD-6) | Effect of inhibitor on EFAD-1 formation [1, 3] | Effect of inhibitor on EFAD-2 formation [1, 3] | Effect of inhibitor on EFAD-3 formation [1, 3] | Effect of inhibitor on EFAD-4 formation [1, 3] | Effect of inhibitor on EFAD-5 formation [1, 3] | Effect of inhibitor on EFAD-6 formation [1, 3] | Formation of OH-DPA by COX-2 (Ovine placental COX-2) | Extent of EFAD formation in BMDM [2] | Formation of GS-adducts (RAW264.7 cells)
CCCCCC=CC=C1C(=O)C=C[C@@H]1CC=CCCCC(=O)O [15d-PGJ2, 15-deoxy-Δ (12,14)-prostaglandin J2] | ~25 nM | – | – | – | – | – | – | – | – | – | –
CC(=O)Oc1ccccc1C(=O)O [ASA, acetyl salicylic acid] | – | about 2.5 fold | ↑ | ↑ | ↑ | ↓ | ↑ | ↓ | increased the rate and extent of formation | increased about two to three fold | enhanced the formation of GS-adducts
